Results on 13 compounds are retold here after patent publication US4751217A, “Physiologically active substances named SEN-366” (Nippon Shinyaku Co., Ltd., priority 1984, dated 1988).

Values after ≈ are worked out from the molar mass of the structure shown. “Also recorded” adds a separate entry of the source.

Data set [1] has as its system platelet aggregation (collagen). Nature of the data set: Inhibitory action against platelet aggregation, inducer collagen. Type of data set: cell-based. The note with it: for IC50: Oryctolagus cuniculus, Platelet, collagen 10 μg/ml, rabbit PRP. The procedure: (§1) Inhibitory Action against Platelet Aggregation:
(§2) (1) Materials and Method:
(§3) The sample is tested after dissolved in dimethyl sulfoxide. The preparation is conducted so as to make the final concentration of the solvent 1%. Dimethyl sulfoxide of the same concentration is used as a control. As to inducers for platelet aggregation, ADP (final concentration: 5 μm), AA (arachidonic acid) (final concentration: 150 μM) and collagen (final concentration: 10 μg/ml) are used.
(§4) (2) Preparation of platelet:
Blood is taken from total neck artery of male rabbits of 2.0-2.5 kg body weight. […] The precipitate is further centrifuged at 1600×g for 10 minutes and the resulting supernatant liquid is used as plasma with poor platelet (hereinafter abbreviated as PPP).
(§5) (3) Method for Measuring Aggregation Power:
(§6) A measuring apparatus for platelet aggregation is used and the changes in absorbancy by the aggregation with an elapse of time are recorded.
(§7) Thus, 200 microliters of PRP is taken, its difference between PPP is adjusted to a certain value, then 25 microliters of control solution or test solution is added, the mixture is stirred (1000 rpm) for 1 minutes, 25 microliters of aggregation inducer is added, and the changes in absorbancy are recorded. The inhibitory ratio is calculated from the following expression from the maximum aggregation ratio of the control (A in %) and that of the test solution (B in %): [formula]
(§8) The sample is tested after dissolved in dimethyl sulfoxide. The preparation is conducted so as to make the final concentration of the solvent 1%. Dimethyl sulfoxide of the same concentration is used as a control. As to inducers for platelet aggregation, ADP (final concentration: 5 μM), AA (arachidonic acid) (final concentration: 150 μM) and collagen (final concentration: 10 μg/ml) are used.
(§9) Blood is taken from total neck artery of male rabbits of 2.0-2.5 kg body weight. To the blood is added 1/10 volume of 3.8% citric acid solution, the mixture is gently stirred, centrifuged 1300×g for 2 minutes, and the resulting supernatant liquid is used as plasma with abundant platelet (hereinafter abbreviated as PRP). The precipitate is further centrifuged at 1600×g for 10 minutes and the resulting supernatant liquid is used as plasma with poor platelet (hereinafter abbreviated as PPP).
(§10) Thus, 200 microliters of PRP is taken, its difference between PPP is adjusted to a certain value, then 25 microliters of control solution or test solution is added, the mixture is stirred (1000 rpm) for 1 minute, 25 microliters of aggregation inducer is added, and the changes in absorbancy are recorded. The inhibitory ratio is calculated from the following expression from the maximum aggregation ratio of the control (A in %) and that of the test solution (B in %): [formula]

The subject of data set [2] is platelet aggregation (AA). Nature of the data set: Inhibitory action against platelet aggregation, inducer arachidonic acid (AA). Conditions: for IC50: Oryctolagus cuniculus, Platelet, AA 150 μM, rabbit PRP. Type of data set: cell-based. As to the method:
as §1, §2, §3, §4
(§11) Blood is taken from total neck artery of male rabbits of 2.0-2.5 kg body weight. To the blood is added 1/10 volume of 3.8% sodium citrate solution, the mixture is gently stirred, centrifuged 1300×g for 2 minutes, and the resulting supernatant liquid is used as plasma with abundant platelet (hereinafter abbreviated as PRP). The precipitate is further centrifuged at 1600×g for 10 minutes and the resulting supernatant liquid is used as plasma with poor platelet (hereinafter abbreviated as PPP).
as §5, §6, §7
(§12) Inhibitory ratios with varied test solution concentrations are calculated and the IC50 (50% inhibitory concentration) is calculated therefrom.
as §8, §9, §10

Data set [3] has as its system platelet aggregation (ADP). Kind of data set: Inhibitory action against platelet aggregation, inducer ADP. The data set is classed as cell-based. The note with it: for IC50: Oryctolagus cuniculus, Platelet, ADP 5 μM, rabbit PRP. The procedure: as §1, §2, §3, §4, §11, §5, §6, §7, §12, §8, §9, §10
A short description of a further data set: Solubility. Type of data set: physicochemical. Conditions: qualitative, in named solvents.
[4] abbreviates: Table 2, rabbit PRP, listed as E4.
The mark [5] stands for this setting: Table 1, rabbit PRP, listed as BT2.
[6] abbreviates: Table 2, rabbit PRP, listed as M3.
Where [7] appears, read: Table 1, rabbit PRP, listed as BT3.
Setting [8] is: Table 2, rabbit PRP, listed as CB3.
The mark [9] stands for this setting: Table 1, rabbit PRP, listed as BT4.

Consider `CCOC1CCC(OC2CCC(OC3CCC(=O)C(C)O3)C(C)O2)C(C)O1` (stereo not shown) [SEN-366-E4], for which the “IC50 Collagen 10 μg/ml” value in data set [1] (setting [4]) worked out at 16.5 µg/mL (≈ 42.7 µM). In addition, the “IC50 AA 150 μM” value in data set [2] (setting [4]) was found to be 65.0 µg/mL (≈ 168 µM). Also, the “IC50 ADP 5 μM” value in data set [3] (Table 2, rabbit PRP) was greater than 100 µg/mL.
For the compound `CCCC(=O)OC1CCC(OC2CCC(OC3CCC(=O)C(C)O3)C(C)O2)C(C)O1` (stereo not shown) [SEN-366-BT2], in data set [1] (setting [5]), the “IC50 Collagen 10 μg/ml” value was 0.53 µg/mL (≈ 1.24 µM). The “IC50 AA 150 μM” value in data set [2] (setting [5]) was determined as 2.1 µg/mL (≈ 4.9 µM). The “IC50 ADP 5 μM” value in data set [3] (setting [5]) stood at 1.35 µg/mL (≈ 3.15 µM).
`COC1CCC(OC2CCC(OC3C=CC(=O)C(C)O3)C(C)O2)C(C)O1` (stereo not shown) [SEN-366-M3]: the “IC50 Collagen 10 μg/ml” value in data set [1] (setting [6]) turned out to be 5.2 µg/mL (≈ 14 µM). Besides, in data set [2] (setting [6]), the “IC50 AA 150 μM” value is 25.0 µg/mL (≈ 67.5 µM). Besides, the “IC50 ADP 5 μM” value in data set [3] (setting [6]) was 15.0 µg/mL (≈ 40.5 µM).
Turning to `CC1OC(OC2CCC(OC3CCC(=O)OC3C)OC2C)C=CC1=O` (stereo not shown) [SEN-366-L1], the IC50 in data set [1] (Table 2) was 5 µg/mL (≈ 14.1 µM); in data set [2] (Table 2), 27 µg/mL (≈ 76.2 µM); in data set [3] (Table 2) it was 12 µg/mL (≈ 33.9 µM).
For `CC(=O)OC1CCC(OC2CCC(OC3C=CC(=O)C(C)O3)C(C)O2)C(C)O1` (stereo not shown) [SEN-366-A1], in data set [1] (Table 1, rabbit PRP, listed as A1), the “IC50 Collagen 10 μg/ml” value is less than 0.1 µg/mL. Besides, the IC50 was 1.2 µg/mL (≈ 3.01 µM) in data set [2] (Table 1) and 0.22 µg/mL (≈ 0.552 µM) in data set [3] (Table 1).
`CCCC(=O)OC1CCC(OC2CCC(OC3C=CC(=O)C(C)O3)C(C)O2)C(C)O1` (stereo not shown) [SEN-366-BT3]: the “IC50 Collagen 10 μg/ml” value in data set [1] (setting [7]) was found to be 0.16 µg/mL (≈ 0.375 µM). Further, the “IC50 AA 150 μM” value in data set [2] (setting [7]) was found to be 0.64 µg/mL (≈ 1.5 µM). The “IC50 ADP 5 μM” value in data set [3] (setting [7]) was found to be 0.47 µg/mL (≈ 1.1 µM).
Consider `COC1CCC(OC2CCC(OC3C=CC(=O)C(C)O3)C(C)O2)C(C)O1` (stereo not shown) [SEN-366-M1], for which the IC50 in data set [1] (Table 2) was found to be 5.5 µg/mL (≈ 14.8 µM); in data set [2] (Table 2) it was 29 µg/mL (≈ 78.3 µM); in data set [3] (Table 2) it was 17 µg/mL (≈ 45.9 µM).
In the case of `CC1OC(OC2CCC(OC3CCC(OC(=O)c4ccccc4)OC3C)OC2C)CCC1=O` (stereo not shown) [SEN-366-B2], the IC50 in data set [1] (Table 1) came out at 1.7 µg/mL (≈ 3.68 µM); in data set [2] (Table 1), 1.6 µg/mL (≈ 3.46 µM); in data set [3] (Table 1), 5.7 µg/mL (≈ 12.3 µM).
`CC1OC(OC2CCC(OC3CCC(OC(=O)c4ccc(Cl)cc4)OC3C)OC2C)C=CC1=O` (stereo not shown) [SEN-366-CB3]: the “IC50 Collagen 10 μg/ml” value in data set [1] (setting [8]) was 0.053 µg/mL (≈ 0.107 µM). Further, in data set [2] (setting [8]), the “IC50 AA 150 μM” value was 0.68 µg/mL (≈ 1.37 µM). The “IC50 ADP 5 μM” value in data set [3] (setting [8]) is 0.29 µg/mL (≈ 0.586 µM).
On to `CCOC1CCC(OC2CCC(OC3C=CC(=O)C(C)O3)C(C)O2)C(C)O1` (stereo not shown) [SEN-366-E1], for which the “IC50 Collagen 10 μg/ml” value in data set [1] (Table 2, rabbit PRP, listed as E1) is 2.0 µg/mL (≈ 5.2 µM). The IC50 amounted to 10.3 µg/mL (≈ 26.8 µM) in data set [2] (Table 2) and 7.2 µg/mL (≈ 18.7 µM) in data set [3] (Table 2).
With `CC1OC(OC2CCC(OC3CCC(O)OC3C)OC2C)C(O)CC1=O` (stereo not shown) [SEN-366-P], the IC50 stood at 1.6 µg/mL (≈ 4.27 µM) in data set [1] (Table 1), 25 µg/mL (≈ 66.8 µM) in data set [2] (Table 1) and 4.4 µg/mL (≈ 11.8 µM) in data set [3] (Table 1). Further, the Solubility result in the data set “Solubility” was “Soluble in water, methanol, ethanol, chloroform, acetone and ethyl acetate; also recorded: hardly soluble in petroleum ether and n-hexane”.
Regarding `CCCC(=O)OC1CCC(OC2CCC(OC3CCC(=O)C(C)O3)C(C)O2)C(C)O1` (stereo not shown) [SEN-366-BT4], the “IC50 Collagen 10 μg/ml” value in data set [1] (setting [9]) came out at 1.6 µg/mL (≈ 3.73 µM). For the same compound, the “IC50 AA 150 μM” value in data set [2] (setting [9]) amounted to 5.7 µg/mL (≈ 13.3 µM). The “IC50 ADP 5 μM” value in data set [3] (setting [9]) was 5.3 µg/mL (≈ 12.4 µM).
In the case of `CC1OC(OC2CCC(O)OC2C)C=CC1=O` (stereo not shown) [SEN-366-F0], the figures for the IC50 in data set [1] (Table 3), in data set [2] (Table 3) and in data set [3] (Table 3) were 1.5 µg/mL (≈ 6.19 µM), 3.4 µg/mL (≈ 14 µM) and 9.3 µg/mL (≈ 38.4 µM), respectively.
